Tested on: NO production in LPS-stimulated RAW 264.7 macrophage cells
Experiment: Inhibition of nitric oxide (NO) production in LPS-stimulated murine macrophages (RAW 264.7), Griess reagent
Type: cell-based
Details: 3 h pre-treatment, then 5 ng/ml LPS overnight; FO 15 μM, DIM 15 μM, BC-concentrated TQ 10 μM; FIG. 3
Procedure: These two different BC preparations were then tested for their ability to inhibit NO production, in accordance with the method described hereinbelow in Example 4.
BC-concentrated TQ (obtained from TriNutra. Ness Ziona, Israel), Omega-3 oil (fish oil—FO) and Diindolylmethane (DIM) were tested on a macrophage murine cellular system (RAW 264.7) before stimulation with Lipopolysaccharide (LPS), an endotoxin which induces a strong response from normal animal immune systems.
Cells were thawed, grown and managed according to standard protocols.
On Day 0, cells were seeded in 6-well plates at concentrations of 6×10^5. Volume of medium per well was 2 ml. Cells were seeded in triplicates for each treatment and for each control.
Culture Medium • 10% FCS, 1% Penicillin-Streptomycin Solution, 2% Glutamine 2% were added to DMEM (final volume −500 ml) and filtered. Medium was kept at 2-8° C. until use.
10 mg LPS was dissolved in 10 ml sterile water aliquoted and kept at −20° C.
Before use 1 aliquot was defrosted and diluted in culture media to final concentration of 5 ng/ml.
MW of Fish oil 300 g/mol.
Test items were dissolved in 100% ethanol to form 100 mM concentration.
Further dilutions were made in culture medium. 10% of test item in concentration×10 was added to each well according to study plan.
Stock solution (100 mM) was prepared in 100% DMSO. […]

SMILES: c1ccc2c(Cc3c[nH]c4ccccc34)c[nH]c2c1 [DIM, 3,3′-Diindolylmethane]
- inhibition of NO production when tested separately: caused inhibition of NO production

— patent US11426365B2, “Compositions comprising thymoquinone and omega-3 fatty acids” (TRINUTRA LTD., priority 2017, dated 2022)
